The results in this text go back to patent publication US12630521B2, “Arylamides and methods of use thereof” (Genzyme Corporation, priority 2019, dated 2026).

The target of experiment [1] is T1, CFTR (ΔF508 homozygous CF-HBE cells) (Homo sapiens, UniProt P13569, DEL508-508).
T1 construct: Primary human bronchial epithelial cells from a ΔF508 homozygous CF donor; host or cells: primary CF-HBE cells (ΔF508/ΔF508 donor)
Briefly: TECC24 AUC fold over DMSO @10 uM: CFTR-mediated transepithelial chloride transport in primary CF-HBE cells. Type of experiment: cell-based. The settings on record: 10 μM test agent, 48 hours, forskolin-stimulated IEQ AUC divided by vehicle AUC. The method, boiled down: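 Primary ΔF508-homozygous CF bronchial epithelial cells were exposed to test agent for 48 h at 36.5° C, then VT and TEER were recorded with benzamil (10 μM), forskolin (10 μM) stimulation and CFTR inhibitor-172 (20 μM) at the end. AUC of equivalent Cl- current between forskolin and inhibitor is expressed as fold over DMSO vehicle.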

For experiment [2], the target named is T2, human Cystic Fibrosis Transmembrane Conductance Regulator (CFTR) harboring the ΔF508 mutation (Homo sapiens, UniProt P13569, DEL508-508).
T2 construct: expressed in transfected cells; host or cells: H441 carcinoma cell line (G418 selection)
The experiment is described as follows: H441 cell Emax and EC50: HRP-tagged ΔF508-CFTR cell-surface luminescence assay. The class given is cell-based. Particulars: H441 cells expressing HRP-tagged ΔF508-CFTR, 27° C. for two nights; for pEC50: 15-point dose-response; for Emax: NCI-H441, % of maximum VX809 signal. The method, boiled down: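 H441 cells expressing ΔF508-CFTR with HRP fused in extracellular loop 4 (CMV promoter), ~10K cells/well, 15-point dose range 24.5 to 0.001 μM, incubated at 27° C. for two nights. Surface CFTR read by Luminata Forte luminescence; Emax as % of maximum VX809 signal, plus EC50.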

For orientation: pEC50 means the EC50 on a negative log10 scale, so that one unit is a factor of ten. For orientation: Emax means the size of the effect at its maximum, as opposed to the concentration needed.

Structures are written as SMILES. pEC50: −log10 of the molar value.

T2 sequence (P13569 with tags, fused parts or gaps DEL508-508): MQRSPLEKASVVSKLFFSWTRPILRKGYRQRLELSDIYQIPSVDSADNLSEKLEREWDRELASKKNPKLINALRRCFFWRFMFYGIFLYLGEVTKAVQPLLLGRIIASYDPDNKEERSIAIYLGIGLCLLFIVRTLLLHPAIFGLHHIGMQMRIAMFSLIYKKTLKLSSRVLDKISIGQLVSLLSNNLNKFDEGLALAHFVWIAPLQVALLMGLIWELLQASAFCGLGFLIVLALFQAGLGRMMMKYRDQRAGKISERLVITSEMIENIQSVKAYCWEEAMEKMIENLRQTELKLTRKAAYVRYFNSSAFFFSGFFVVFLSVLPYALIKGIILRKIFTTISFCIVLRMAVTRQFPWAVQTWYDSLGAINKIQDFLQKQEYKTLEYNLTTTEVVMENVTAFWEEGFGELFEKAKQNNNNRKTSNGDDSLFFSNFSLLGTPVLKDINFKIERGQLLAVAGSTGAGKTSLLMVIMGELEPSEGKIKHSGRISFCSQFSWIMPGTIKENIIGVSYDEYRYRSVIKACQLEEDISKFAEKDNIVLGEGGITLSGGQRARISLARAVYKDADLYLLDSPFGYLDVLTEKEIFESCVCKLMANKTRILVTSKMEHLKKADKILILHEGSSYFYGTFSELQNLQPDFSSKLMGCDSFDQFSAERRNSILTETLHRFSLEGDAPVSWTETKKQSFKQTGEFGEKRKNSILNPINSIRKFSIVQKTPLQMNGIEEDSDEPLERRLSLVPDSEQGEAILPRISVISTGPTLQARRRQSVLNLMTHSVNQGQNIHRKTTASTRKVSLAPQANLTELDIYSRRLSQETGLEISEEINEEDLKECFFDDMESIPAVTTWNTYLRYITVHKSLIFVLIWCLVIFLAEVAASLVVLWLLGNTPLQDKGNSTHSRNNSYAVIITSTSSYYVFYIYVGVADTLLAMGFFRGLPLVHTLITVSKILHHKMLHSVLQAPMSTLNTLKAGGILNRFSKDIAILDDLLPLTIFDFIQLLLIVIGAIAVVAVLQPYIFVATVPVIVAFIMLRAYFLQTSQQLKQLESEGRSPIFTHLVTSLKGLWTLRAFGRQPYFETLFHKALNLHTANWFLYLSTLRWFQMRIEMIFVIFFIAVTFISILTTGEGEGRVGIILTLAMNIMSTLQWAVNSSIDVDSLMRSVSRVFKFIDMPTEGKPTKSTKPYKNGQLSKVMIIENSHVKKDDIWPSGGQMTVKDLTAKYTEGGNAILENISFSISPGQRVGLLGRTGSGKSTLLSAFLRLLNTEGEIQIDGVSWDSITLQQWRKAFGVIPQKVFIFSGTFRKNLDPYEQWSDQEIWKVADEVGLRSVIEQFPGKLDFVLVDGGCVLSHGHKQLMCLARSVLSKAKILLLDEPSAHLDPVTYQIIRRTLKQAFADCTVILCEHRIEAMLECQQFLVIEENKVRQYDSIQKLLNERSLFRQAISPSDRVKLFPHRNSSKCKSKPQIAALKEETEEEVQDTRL
T1 sequence (P13569 with tags, fused parts or gaps DEL508-508): as above

On to `Cc1c(Cl)sc2ccc(C(=O)N[C@H](C(=O)O)C(C)(C)C)c(OCc3ccc(C(F)(F)F)cc3)c12` [Compound 35-1, (2S)-2-[[2-chloro-3-methyl-4-[[4-(trifluoromethyl)phenyl]methoxy]-benzothiophene-5-carbonyl]amino]-3,3-dimethyl-butanoic acid], for which the “TECC24 AUC fold over DMSO” value in experiment [1] is recorded as “A (“A” refers to AUC @10 μM > 6)”. In experiment [2], this compound had a pEC50 of 6.21 and an Emax of 151%.

For the compound `Cc1csc2ccc(C(=O)N[C@H](C(=O)O)C(C)(C)C)c(OCc3ccc(C(F)(F)F)cc3)c12` [Compound 35-2, (2S)-3,3-dimethyl-2-[[3-methyl-4-[[4-(trifluoromethyl)phenyl]methoxy]-benzothiophene-5-carbonyl]amino]butanoic acid], the “TECC24 AUC fold over DMSO” value in experiment [1] was “C (“C” refers to AUC @10 μM < 4)”. Also, in experiment [2], the pEC50 is 6.33 and the Emax amounted to 146%.

Regarding `Cc1nc2c(OCc3ccc(C(F)(F)F)cc3)c(C(=O)N[C@H](C(=O)O)C(C)(C)C)ccc2s1` [Compound 35-3, (2S)-3,3-dimethyl-2-[[2-methyl-4-[[4-(trifluoromethyl)phenyl]methoxy]-1,3-benzothiazole-5-carbonyl]amino]butanoic acid], the “TECC24 AUC fold over DMSO” value in experiment [1] was “A (“A” refers to AUC @10 μM > 6)”. In experiment [2], this compound gave a pEC50 of 6.18 and an Emax of 286%.
